Results taken from patent US6875761B2 (Eisai Co., Ltd., priority 1997, dated 2005).
Counter-ions that a name gives are not always drawn.

| Structure (SMILES) | melting point |
| --- | --- |
| CCN1CCN(c2nc(-c3ccc(CCCO)cc3)cc3sccc23)CC1 (as salt: hydrochloride) [Example 465, 4-(4-ethylpiperazin-1-yl)-6-[4-(3-hydroxypropy)phenyl]thieno[3,2-c]pyridine dihydrochloride] | 125.5 to 126.5 °C |
| CCN1CCN(c2nc(-c3ccc(OC)cc3)cc3ccoc23)CC1 (as salt: hydrochloride) [Example 467, 7-(4-ethylpiperazin-1-yl)-5-(4-methoxyphenyl)furo[2,3-c]pyridine dihydrochloride] | 127 to 128 °C |
| CCN1CCN(c2nc(C(O)c3ccccc3OC)cc3ccccc23)CC1 (centres unmarked) (as salt: oxalate) | 100 to 103 °C |
| CCN1CCN(c2nc(C(C)(O)c3ccc(OC)cc3)cc3ccccc23)CC1 (centres unmarked) (as salt: oxalate) | 179 to 181 °C |
| CCN1CCN(c2nc(C3=CCCc4c(OC)cccc43)cc3ccccc23)CC1 (as salt: oxalate) | 136 to 139 °C |
| CCN1CCN(c2nc(C3=CCCc4ccc(OC)cc43)cc3ccccc23)CC1 (as salt: oxalate) | 150 to 153 °C |
| CCN1CCN(c2nc(C3CCCc4c(OC)cccc43)cc3ccccc23)CC1 (centres unmarked) (as salt: oxalate) | 133 to 136 °C |
| CCN1CCN(c2nc(C3CCCc4cc(OC)ccc43)cc3ccccc23)CC1 (centres unmarked) (as salt: oxalate) | 170 to 173 °C |
| CCN1CCN(c2nc(C3CCCc4ccc(OC)cc43)cc3ccccc23)CC1 (centres unmarked) (as salt: oxalate) | 110 to 112 °C |
| CCNS(=O)(=O)c1ccc(-c2cc3ccccc3c(N3CCN(CCO)CC3)n2)cc1 (as salt: oxalate) | 172 to 174 °C |
| CCCS(=O)(=O)c1ccc(-c2cc3ccccc3c(N3CCN(CCO)CC3)n2)cc1 (as salt: oxalate) | 127 to 129 °C |
| CCN1CCN(c2nc(-c3ccc(OC)cc3)cc3occc23)CC1 (as salt: oxalate) | 170 to 172 °C (dec.) |
| CCCC(O)c1ccc(-c2cc3ccccc3c(N3CCN(CC)CC3)n2)cc1 (centres unmarked) (as salt: oxalate) [Example 21, 1-(4-ethylpiperazin-1-yl)-3-[4-(1-hydroxybutyl)phenyl]isoquinoline oxalate] | 198.5 to 199.5 °C |
| CCN1CCN(c2nc(-c3ccc(CCC(C)O)cc3)cc3ccccc23)CC1 (centres unmarked) (as salt: oxalate) [Example 22, 1-(4-ethylpiperazin-1-yl)-3-[4-(3-hydroxybutyl)phenyl]isoquinoline oxalate] | 193 to 194 °C |
| CCN1CCN(c2nc(C(C)c3ccc(OC)cc3)cc3ccccc23)CC1 (stereo not drawn) (as salt: oxalate) [Example 102, 3-[α-Methyl-(4-methoxybenzyl)]-1-(4-ethylpiperazin-1-yl)isoquinoline Oxalate] | 86 to 88 °C |
| CCN1CCN(c2nc(C(O)c3ccc(OC)cc3)cc3ccccc23)CC1 (stereo not drawn) (as salt: oxalate) [Example 104, 3-[α-Hydroxy-(4-methoxybenzyl)]-1-(4-ethylpiperazin-1-yl)isoquinoline Oxalate] | 95 to 97 °C |
| CCN1CCN(c2nc(C(=O)c3ccccc3OC)cc3ccccc23)CC1 (as salt: oxalate) [Example 111, 3-(2-Methoxyphenylcarbonyl)-1-(4-ethylpiperazin-1-yl)isoquinoline Oxalate] | 153 to 156 °C |
| CCN1CCN(c2nc(C(=O)c3ccc(OC)cc3)cc3ccccc23)CC1 (as salt: oxalate) [Example 112, 3-(4-Methoxyphenylcarbonyl)-1-(4-ethylpiperazin-1-yl)isoquinoline Oxalate] | 176 to 179 °C |
| CCN1CCN(c2nc(C3CCc4ccc(OC)cc43)cc3ccccc23)CC1 (centres unmarked) (as salt: oxalate) [Example 114, 3-(6-Methoxyindan-1-yl)-1-(4-ethylpiperazin-1-yl)isoquinoline Oxalate] | 122 to 124 °C |
| CCN1CCN(c2nc(C3=CCCc4cc(OC)ccc43)cc3ccccc23)CC1 (as salt: oxalate) [Example 117, 3-(7-Methoxy-1,2-dihydronaphthalen-4-yl)-1-(4-ethylpiperazin-1-yl)isoquinoline Oxalate] | 112 to 114 °C |
| CCN1CCN(c2nc(-c3ccc(C4=CCOCC4)nc3)cc3ccccc23)CC1 (as salt: oxalate) [Example 155, 3-[2-(5,6-dihydro-2H-pyran-4-yl)pyridin-5-yl]-1-(4-ethylpiperazin-1-yl)isoquinoline oxalate] | 156 to 159 °C |

| Structure (SMILES) | melting point |
| --- | --- |
| CCN1CCN(c2nc(-c3ccc(C4CCOCC4)nc3)cc3ccccc23)CC1 (as salt: oxalate) [Example 156, 3-[2-(tetrahydropyran-4-yl)pyridin-5-yl]-1-(4-ethylpiperazin-1-yl)isoquinoline oxalate] | 158 to 160 °C |
| CCN1CCN(c2nc(C#Cc3ccccn3)cc3ccccc23)CC1 (as salt: oxalate) [Example 179, 1-(1-Ethylpiperazin-4-Yl)-3-(2-Pyridyl)Ethynylisoquinoline Oxalate] | 148 to 154 °C |
| CCN1CCN(c2nc(C#CCN3CCOCC3)cc3ccccc23)CC1 (as salt: oxalate) [Example 180, 3-[3-(4-Morpholinyl)-1-Propynyl]-1-(4-Ethylpiperazin-1-Yl)Isoquinoline Oxalate] | 231 to 233 °C |
| CCN1CCN(c2nc(C#CCc3ccccc3)cc3ccccc23)CC1 (as salt: oxalate) [Example 181, 1-(1-Ethylpiperazin-4-Yl)-3-(3-Phenyl-1-Propynyl)Isoquinoline Oxalate] | 180 to 183 °C |
| CCN1CCN(c2nc(C#CC(=O)c3ccccc3)cc3ccccc23)CC1 (as salt: oxalate) [Example 184, 1-(1-Ethylpiperazin-4-Yl)-3-Benzoylethynylisoquinoline Oxalate] | 161 to 163 °C |
| CCN1CCN(c2nc(/C=C/c3ccc(CS(C)(=O)=O)cc3)cc3ccccc23)CC1 (as salt: oxalate) [Example 203, 3-[(E)-2-(4-Methylsulfonylmethylphenyl)Ethenyl]-1-(4-Ethylpiperazin-1-Yl)Isoquinoline Oxalate] | 245 to 247 °C |
| CCN1CCN(c2nc(/C=C/c3cccc(N4CCOCC4)c3)cc3ccccc23)CC1 (as salt: oxalate) [Example 204, 3-{(E)-2-[3-(4-Morpholinyl)Phenyl]Ethenyl}-1-(4-Ethylpiperazin-1-Yl)Isoquinoline Oxalate] | 180 to 182 °C |
| CCN1CCN(c2nc(/C=C/c3ccc(N4CCOCC4)cc3)cc3ccccc23)CC1 (as salt: oxalate) [Example 205, 3-{(E)-2-[4-(4-Morpholinyl)Phenyl]Ethenyl}-1-(4-Ethylpiperazin-1-Yl)Isoquinoline Oxalate] | 248 to 250 °C |
| CCN1CCN(c2nc(/C=C(\C)c3ccc(N4CCOCC4)cc3)cc3ccccc23)CC1 (as salt: oxalate) [Example 206, 3-{(E)-2-Methyl-2-[4-(4-Morpholinyl)Phenyl]Ethenyl}-1-(4-Ethylpiperazin-1-Yl)Isoquinoline Oxalate] | 266 to 267 °C |
| CCN1CCN(c2nc(/C=C(\C)c3cccc(N4CCOCC4)c3)cc3ccccc23)CC1 (as salt: oxalate) [Example 207, 3-{(E)-2-Methyl-2-[3-(4-Morpholinyl)Phenyl]Ethenyl}-1-(4-Ethylpiperazin-1-Yl)Isoquinoline Oxalate] | 190 to 192 °C |
| CCN1CCN(c2nc(/C=C/c3ccc(N4CCOCC4)nn3)cc3ccccc23)CC1 (as salt: oxalate) [Example 214, 3-{(E)-2-[3-(4-Morpholinyl)Pyridazin-6-Yl]Ethenyl}-1-(4-Ethylpiperazin-1-Yl)Isoquinoline Oxalate] | 88 to 90 °C |
| CCN1CCN(c2nc(/C=C/c3cc(N4CCOCC4)ncn3)cc3ccccc23)CC1 (as salt: oxalate) [Example 215, 3{(E)-2-[4-(4-morpholinyl)pyrimidin-6-yl]ethenyl}-1-(4-ethylpiperazin-1-yl)isoquinoline oxalate] | 130 to 134 °C |
| CCN1CCN(c2nc(/C=C/c3cncc(N4CCOCC4)n3)cc3ccccc23)CC1 (as salt: oxalate) [Example 216, 3-{(E)-2-[2-(4-morpholinyl)pyrazin-6-yl]ethenyl}-1-(4-ethylpiperazin-1-yl)isoquinoline oxalate] | 173 to 175 °C |
| CCN1CCN(c2nc(-c3ccc(CCCO)c(Cl)c3)cc3ccsc23)CC1 (as salt: oxalate) [Example 257, 5-[4-(3-hydroxypropyl)-3-chlorophenyl]-7-(4-ethylpiperazin-1-yl)thieno[2,3-c]pyridine Oxalate] | 114 to 116 °C |
| CCN1CCN(c2nc(-c3ccc(OC)c(CCCO)c3)cc3ccsc23)CC1 (as salt: oxalate) [Example 261, 5-[3-(3-hydroxypropyl)-4-methoxyphenyl]-7-(4-ethylpiperazin-1-yl)thieno[2,3-c]pyridine Oxalate] | 98 to 102 °C |
| CCN1CCN(c2nc(-c3ccc(CCCO)c(C#N)c3)cc3ccsc23)CC1 (as salt: oxalate) [Example 262, 5-[4-(3-hydroxypropyl)-3-cyanophenyl]-7-(4-ethylpiperazin-1-yl)thieno[2,3-c]pyridine Oxalate] | 132 to 134 °C |
| CCN1CCN(c2nc(-c3ccc(OCCO)nc3)cc3ccsc23)CC1 (as salt: oxalate) [Example 268, 5-[2-(2-hydroxyethoxy)pyridin-5-yl]-7-(4-ethylpiperazin-1-yl)thieno[2,3-c]pyridine Oxalate] | 124 to 125 °C |
| OCCOc1ccc(-c2cc3ccsc3c(N3CCN(CCO)CC3)n2)cc1 (as salt: oxalate) [Example 275, 5-[4-(2-hydroxyethoxy)phenyl]-7-[4-(2-hydroxyethyl)piperazin-1-yl]thieno[3,2-c]pyridine oxalate] | 105 to 107 °C |
| CCN1CCN(c2nc(-c3ccc(OCCO)cc3)cc3cscc23)CC1 (as salt: oxalate) [Example 278, 4-(4-ethylpiperazin-1-yl)-6-[4-(2-hydroxyethoxy)phenyl]thieno-[3,4-c]pyridine oxalate] | 130 °C (dec.) |
| CCN1CCN(c2nc(-c3ccc(C(C)O)cc3)cc3sccc23)CC1 (centres unmarked) (as salt: oxalate) [Example 281, 4-(4-ethylpiperazin-1-yl)-6-[4-(1-hydroxyethyl)phenyl]thieno[3,2-c]pyridine oxalate] | 134 to 135 °C |
